In brackets after ≈: the same amount, converted by molar mass.
Legend:
[1] = test system: β-lactamase from Pseudomonas aeruginosa GN 238; assay: Resistant activity against β-lactamase, iodometric assay; assay type: biochemical; details: β-lactamase hydrolysis, relative to Potassium Penicillin G = 100
Procedure: (§1) 3. Resistant activity against β-lactamase, Pseudomonas aeruginosa GN 238 and Escherchia coli 33:
(§2) The resistant activity of each compound against β-lactamase was measured in the manner described below.
(§3) β-Lactamase was prepared from Pseudomonas aeruginosa GN 238 and Escherchia coli 33. This microorganism was cultured in 100 ml. of a medium containing 2 g. of yeast extract, 10 g. of polypeptone, 2 g. of glucose, 7 g. of disodium hydrogen phosphate, 2 g. of potassium dihydrogen phosphate, 1.2 g. of ammonium sulfate and 0.4 g. of magnesium sulfate, per liter, in a 500-ml. Erlenmeyer flask for 6 hrs. at 37°C with shaking. The resulting cells were collected by centrifugation (5,000 r.p.m. × 10 min.), washed three times with 0.1 M phosphate buffer (pH 7.0). Subsequently, the cells were subjected to sonication (20 KHz, 20 min.) and then centrifuged at 15,000 r.p.m. for 60 min. By using the supernatant of enzyme fluid, the resistance of each compound against β-lactamase was determined by the iodometric assay method. Each numeral shown in Table 3 is a relative activity value calculated by assuming as 100 the activity of the control Potassium Penicillin G.

[2] = test system: β-lactamase from Escherchia coli 33; assay: as above; assay type: biochemical; details: β-lactamase hydrolysis, relative to Potassium Penicillin G = 100
Procedure: as §1, §2, §3

[3] = test system: Klebsiella pneumoniae; assay: MIC by plate method, standard strains; assay type: cell-based; details: Heart infusion agar pH 7.4, inoculum 10^4 cells per plate (10^6 cells/ml.), unit assumed
Procedure: (§4) The minimum inhibitory concentration (MIC) was determined by the plate method disclosed in "Chemotherapy" (Japan), Vol. 16, (1968), pages 98 - 99. The culture medium used was a Heart infusion agar (pH 7.4). The number of the cells per plate used in the inoculum was 10^4 (10^6 cells/ml.).

[4] = test system: Escherchia coli NIHJ; assay: MIC by plate method, standard strains; assay type: cell-based; details: Heart infusion agar pH 7.4, inoculum 10^4 cells per plate (10^6 cells/ml.), unit assumed
Procedure: as §4

[5] = test system: Staphylococcus aureus 209P; assay: MIC by plate method, standard strains; assay type: cell-based; details: Heart infusion agar pH 7.4, inoculum 10^4 cells per plate (10^6 cells/ml.), unit assumed
Procedure: as §4

[6] = test system: Proteus vulgaris 3027; assay: MIC by plate method, standard strains; assay type: cell-based; details: Heart infusion agar pH 7.4, inoculum 10^4 cells per plate (10^6 cells/ml.), unit assumed
Procedure: as §4

[7] = test system: Pseudomonas aeruginosa I.F.O.; assay: MIC by plate method, standard strains; assay type: cell-based; details: Heart infusion agar pH 7.4, inoculum 10^4 cells per plate (10^6 cells/ml.), unit assumed
Procedure: as §4

[8] = Acute toxicity LD50 i.v. in mouse; details: in vivo, iv; i.v. in mouse having a weight of 19 ± 1 g.
Text: The present penicillins have generally low toxicity.

[9] = test system: Pseudomonas aeruginosa clinical isolates; assay: MIC by plate method, clinical isolates of bacteria; assay type: cell-based; details: for MIC Pseudomonas aeruginosa GN 82: clinical isolate GN 82, Heart infusion agar pH 7.4, unit assumed; for MIC Pseudomonas aeruginosa GN 163: clinical isolate GN 163, Heart infusion agar pH 7.4, unit assumed; for MIC Pseudomonas aeruginosa GN 221: clinical isolate GN 221, Heart infusion agar pH 7.4, unit assumed; for MIC Pseudomonas aeruginosa GN 264: clinical isolate GN 264, Heart infusion agar pH 7.4, unit assumed; for MIC Pseudomonas aeruginosa GN 376: clinical isolate GN 376, Heart infusion agar pH 7.4, unit assumed; for MIC Pseudomonas aeruginosa GN 383: clinical isolate GN 383, Heart infusion agar pH 7.4, unit assumed; for MIC Pseudomonas aeruginosa GN 1035: clinical isolate GN 1035, Heart infusion agar pH 7.4, unit assumed; for MIC Pseudomonas aeruginosa GN 1091: clinical isolate GN 1091, Heart infusion agar pH 7.4, unit assumed; for MIC Pseudomonas aeruginosa GN 2565: clinical isolate GN 2565, Heart infusion agar pH 7.4, unit assumed; for MIC Pseudomonas aeruginosa GN 2987: clinical isolate GN 2987, Heart infusion agar pH 7.4, unit assumed; for MIC Pseudomonas aeruginosa S-2: clinical isolate S-2, Heart infusion agar pH 7.4, unit assumed; for MIC Pseudomonas aeruginosa S-3: clinical isolate S-3, Heart infusion agar pH 7.4, unit assumed; for MIC Pseudomonas aeruginosa S-4: clinical isolate S-4, Heart infusion agar pH 7.4, unit assumed
Procedure: as §4
MIC was determined in the same manner as in the preceding paragraph (1).

SMILES	Relative activity (%) Pseudomonas aeruginosa GN238 [1] [%]	Relative activity (%) Escherchia coli 33 [2] [%]	MIC Klebsiella pneumoniae [3] [µg/mL]	MIC Escherchia coli NIHJ [4] [µg/mL]	MIC Staphylococcus aureus 209P [5] [µg/mL]	MIC Proteus vulgaris 3027 [6] [µg/mL]	MIC Pseudomonas aeruginosa I.F.O. [7] [µg/mL]	other results
CC1(C)S[C@@H]2[C@H](NC(=O)[C@H](NC(=O)NC(=O)c3ccc(C(=O)NC(=O)N[C@@H](C(=O)N[C@@H]4C(=O)N5[C@@H]4SC(C)(C)[C@@H]5C(=O)O)c4ccccc4)cc3)c3ccccc3)C(=O)N2[C@H]1C(=O)O [Compound No. 1]	18	12	25 (≈ 27.3 µM)	3.13 (≈ 3.42 µM)	< 1.57	25 (≈ 27.3 µM)	12.5 (≈ 13.7 µM)	
CC1(C)S[C@@H]2[C@H](NC(=O)[C@H](NC(=O)NC(=O)CCC(=O)NC(=O)N[C@@H](C(=O)N[C@@H]3C(=O)N4[C@@H]3SC(C)(C)[C@@H]4C(=O)O)c3ccccc3)c3ccccc3)C(=O)N2[C@H]1C(=O)O [Compound No. 3, N,N'-succinyl-bis[6-(D(-)-α-ureidophenylacetamido)penicillanic acid]]	5	3	100 (≈ 115 µM)	12.5 (≈ 14.4 µM)	< 1.57	12.5 (≈ 14.4 µM)	25 (≈ 28.8 µM)	LD50 [8]: > 3000 mg/kg; MIC Pseudomonas aeruginosa GN 82 [9]: 12.5 µg/mL (≈ 14.4 µM); MIC Pseudomonas aeruginosa GN 163 [9]: 25 µg/mL (≈ 28.8 µM); MIC Pseudomonas aeruginosa GN 221 [9]: 25 µg/mL (≈ 28.8 µM); MIC Pseudomonas aeruginosa GN 264 [9]: 50 µg/mL (≈ 57.7 µM); MIC Pseudomonas aeruginosa GN 376 [9]: 25 µg/mL (≈ 28.8 µM); MIC Pseudomonas aeruginosa GN 383 [9]: 50 µg/mL (≈ 57.7 µM); MIC Pseudomonas aeruginosa GN 1035 [9]: 50 µg/mL (≈ 57.7 µM); MIC Pseudomonas aeruginosa GN 1091 [9]: 25 µg/mL (≈ 28.8 µM); MIC Pseudomonas aeruginosa GN 2565 [9]: 25 µg/mL (≈ 28.8 µM); MIC Pseudomonas aeruginosa GN 2987 [9]: 25 µg/mL (≈ 28.8 µM); MIC Pseudomonas aeruginosa S-2 [9]: 25 µg/mL (≈ 28.8 µM); MIC Pseudomonas aeruginosa S-3 [9]: 25 µg/mL (≈ 28.8 µM); MIC Pseudomonas aeruginosa S-4 [9]: 25 µg/mL (≈ 28.8 µM)
CC1(C)S[C@@H]2[C@H](NC(=O)[C@H](NC(=O)NC(=O)CCCCCCCCC(=O)NC(=O)N[C@@H](C(=O)N[C@@H]3C(=O)N4[C@@H]3SC(C)(C)[C@@H]4C(=O)O)c3ccccc3)c3ccccc3)C(=O)N2[C@H]1C(=O)O [Compound No. 4, N,N'-sebacoyl-bis[6-(D(-)-α-ureidophenylacetamido)penicillanic acid]]	12	8	25 (≈ 26.3 µM)	3.13 (≈ 3.29 µM)	< 1.57	25 (≈ 26.3 µM)	50 (≈ 52.6 µM)	
CC1(C)S[C@@H]2[C@H](NC(=O)[C@H](NC(=O)NC(=O)CCCCCCCCCCCC(=O)NC(=O)N[C@@H](C(=O)N[C@@H]3C(=O)N4[C@@H]3SC(C)(C)[C@@H]4C(=O)O)c3ccccc3)c3ccccc3)C(=O)N2[C@H]1C(=O)O [Compound No. 6, N,n'-tridecanedioyl-bis[6-(D(-)-α-ureidophenylacetamido)penicillanic acid]]	< 1	< 1	12.5 (≈ 12.6 µM)	3.13 (≈ 3.15 µM)	< 1.57	25 (≈ 25.2 µM)	25 (≈ 25.2 µM)	
CC1(C)S[C@@H]2[C@H](NC(=O)Cc3ccccc3)C(=O)N2[C@H]1C(=O)O [Potassium Penicillin G, reference compound]	100	100						
CC1(C)S[C@@H]2[C@H](NC(=O)[C@H](N)c3ccccc3)C(=O)N2[C@H]1C(=O)O [Sodium Ampicillin, reference compound]			50	< 1.57	< 1.57	> 200	> 200	MIC Pseudomonas aeruginosa GN 82 [9]: > 200 µg/mL; MIC Pseudomonas aeruginosa GN 163 [9]: > 200 µg/mL; MIC Pseudomonas aeruginosa GN 221 [9]: > 200 µg/mL; MIC Pseudomonas aeruginosa GN 264 [9]: > 200 µg/mL; MIC Pseudomonas aeruginosa GN 376 [9]: > 200 µg/mL; MIC Pseudomonas aeruginosa GN 383 [9]: > 200 µg/mL; MIC Pseudomonas aeruginosa GN 1035 [9]: > 200 µg/mL; MIC Pseudomonas aeruginosa GN 1091 [9]: > 200 µg/mL; MIC Pseudomonas aeruginosa GN 2565 [9]: > 200 µg/mL; MIC Pseudomonas aeruginosa GN 2987 [9]: > 200 µg/mL; MIC Pseudomonas aeruginosa S-2 [9]: > 200 µg/mL; MIC Pseudomonas aeruginosa S-3 [9]: > 200 µg/mL; MIC Pseudomonas aeruginosa S-4 [9]: > 200 µg/mL
CC1(C)S[C@@H]2[C@H](NC(=O)[C@H](NC(=O)NC(=O)c3ccc4cc(C(=O)NC(=O)N[C@@H](C(=O)N[C@@H]5C(=O)N6[C@@H]5SC(C)(C)[C@@H]6C(=O)O)c5ccccc5)ccc4c3)c3ccccc3)C(=O)N2[C@H]1C(=O)O [compound 2]			3.13 (≈ 3.24 µM)	< 1.57	< 1.57	3.15 (≈ 3.26 µM)	25 (≈ 25.9 µM)	
CC1(C)S[C@@H]2[C@H](NC(=O)[C@H](NC(=O)NC(=O)CCCCCCCCCCC(=O)NC(=O)N[C@@H](C(=O)N[C@@H]3C(=O)N4[C@@H]3SC(C)(C)[C@@H]4C(=O)O)c3ccccc3)c3ccccc3)C(=O)N2[C@H]1C(=O)O [compound 5, N,n'-dodecanedioyl-bis[6-(D(-)-α-ureidophenylacetamido)penicillanic acid]]			12.5 (≈ 12.8 µM)	3.13 (≈ 3.2 µM)	< 1.57	100 (≈ 102 µM)	50 (≈ 51.1 µM)	
CC1(C)S[C@@H]2[C@H](NC(=O)[C@H](NC(=O)NC(=O)COc3ccc(OCC(=O)NC(=O)N[C@@H](C(=O)N[C@@H]4C(=O)N5[C@@H]4SC(C)(C)[C@@H]5C(=O)O)c4ccccc4)cc3)c3ccccc3)C(=O)N2[C@H]1C(=O)O [compound 7]			25 (≈ 25.6 µM)	6.25 (≈ 6.41 µM)	< 1.57	12.5 (≈ 12.8 µM)	25 (≈ 25.6 µM)	
CC1(C)S[C@@H]2[C@H](NC(=O)[C@H](NC(=O)NC(=O)c3ccc(CCc4ccc(C(=O)NC(=O)N[C@@H](C(=O)N[C@@H]5C(=O)N6[C@@H]5SC(C)(C)[C@@H]6C(=O)O)c5ccccc5)cc4)cc3)c3ccccc3)C(=O)N2[C@H]1C(=O)O [compound 8]			6.25 (≈ 6.13 µM)	< 1.57	< 1.57	6.25 (≈ 6.13 µM)	50 (≈ 49.1 µM)	
CC1(C)S[C@@H]2[C@H](NC(=O)[C@H](NC(=O)NC(=O)c3ccc(C(=O)c4ccc(C(=O)NC(=O)N[C@@H](C(=O)N[C@@H]5C(=O)N6[C@@H]5SC(C)(C)[C@@H]6C(=O)O)c5ccccc5)cc4)cc3)c3ccccc3)C(=O)N2[C@H]1C(=O)O [compound 9]			12.5 (≈ 12.3 µM)	3.13 (≈ 3.07 µM)	< 1.57	12.5 (≈ 12.3 µM)	25 (≈ 24.5 µM)	

— patent US3981865A, “Bis-type penicillins and process for producing the same” (Toyama Chemical Co., Ltd., priority 1974, dated 1976)
